In ChEMBL document CHEMBL5390211, “Discovery of N-Arylsulfonyl-Indole-2-Carboxamide Derivatives as Galectin-3 and Galectin-8 C-Terminal Domain Inhibitors” (ACS Med Chem Lett, 2023):

Experiments:
Galectin-8 [1] = molecular target: T1, Galectin-8 (Homo sapiens, UniProt O00214); experiment: Binding affinity to C-terminal domain human Gal-8 expressed in Escherichia coli BL21 (DE3) cells by competitive fluorescence polarization assay
T1 sequence (O00214 whole entry): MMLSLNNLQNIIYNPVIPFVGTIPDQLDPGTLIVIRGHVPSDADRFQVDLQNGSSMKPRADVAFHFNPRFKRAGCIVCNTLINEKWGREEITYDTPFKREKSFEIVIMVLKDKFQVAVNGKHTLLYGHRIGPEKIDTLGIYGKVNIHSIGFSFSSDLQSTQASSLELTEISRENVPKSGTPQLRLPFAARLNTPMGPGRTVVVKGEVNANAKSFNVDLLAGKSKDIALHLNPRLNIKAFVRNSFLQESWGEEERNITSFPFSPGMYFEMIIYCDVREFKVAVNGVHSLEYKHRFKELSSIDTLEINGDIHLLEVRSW

Galectin-3 [2] = molecular target: T2, Galectin-3 (Homo sapiens, UniProt P17931); experiment: Binding affinity to human Gal-3 expressed in Escherichia coli BL21 (DE3) cells by competitive fluorescence polarization assay
Galectin-3 [3] = molecular target: T2, Galectin-3; experiment: Binding affinity to human Gal-3 expressed in Escherichia coli BL21 (DE3) cells by isothermal titration calorimetry analysis
Galectin-3 [4] = molecular target: T2, Galectin-3
Description: Binding affinity to human Gal-3 expressed in Escherichia coli BL21 (DE3) cells assessed as change in enthalpy by isothermal titration calorimetry analysis

Galectin-8 [5] = molecular target: T1, Galectin-8; experiment: Binding affinity to C-terminal domain human Gal-8 expressed in Escherichia coli BL21 (DE3) cells by isothermal titration calorimetry analysis
[6] = molecular target: T3, Galectin-8 (Homo sapiens) (UniProt O00214)
T3 sequence (whole entry): T1 sequence (O00214 whole entry)
Description: Binding affinity to C-terminal domain human Gal-8 expressed in Escherichia coli BL21 (DE3) cells assessed as change in enthalpy by isothermal titration calorimetry analysis

MRC5 = experiment: Inhibition of cell migration in human MRC5 cells assessed as reduction in would closure at 1 uM incubated for 48 hrs by Giemsa staining based microscopic analysis relative to control; type: toxicity
[7] = molecular target: T3, Galectin-8 (Homo sapiens); remark: listed apart in the source
Description: Binding affinity to C-terminal domain human Gal-8 expressed in Escherichia coli BL21 (DE3) cells assessed as change in gibbs free energy by isothermal titration calorimetry analysis

Galectin-1 = Galectin-1 (Homo sapiens, UniProt P09382); experiment: Binding affinity to human Gal-1 expressed in Escherichia coli BL21 (DE3) by competitive fluorescence polarization assay
Galectin-3 [8] = molecular target: T2, Galectin-3; remark: listed apart in the source
Description: Binding affinity to human Gal-3 expressed in Escherichia coli BL21 (DE3) cells assessed as change in entropy by isothermal titration calorimetry analysis

[9] = Cytotoxicity against human MRC5 cells assessed as cell viability at 10 uM incubated for 24 hrs by MTT assay relative to control; type: toxicity, cell-based; details: read-out: Activity
[10] = molecular target: T3, Galectin-8 (Homo sapiens); remark: listed apart in the source
Description: Binding affinity to C-terminal domain human Gal-8 expressed in Escherichia coli BL21 (DE3) cells assessed as change in entropy by isothermal titration calorimetry analysis

Galectin-8 [11] = molecular target: T1, Galectin-8; experiment: Binding affinity to N-terminal domain human Gal-8 expressed in Escherichia coli BL21 (DE3) cells by competitive fluorescence polarization assay
[12] = Cytotoxicity against human MRC5 cells assessed as cell viability at 1 uM incubated for 24 hrs by MTT assay relative to control; type: toxicity, cell-based; details: read-out: Activity
Galectin-3 [13] = molecular target: T2, Galectin-3; remark: listed apart in the source
Description: Binding affinity to human Gal-3 expressed in Escherichia coli BL21 (DE3) cells assessed as change in gibbs free energy by isothermal titration calorimetry analysis

Galectin-8 [14] = molecular target: T1, Galectin-8; experiment: Binding affinity to N-terminal domain human Gal-8 expressed in Escherichia coli BL21star (DE3) cells by competitive fluorescence polarization assay
Galectin-8 [15] = molecular target: T1, Galectin-8; experiment: Binding affinity to N-terminal domain human Gal-8 expressed in Escherichia coli BL21 (DE3) cells by isothermal titration calorimetry analysis

T2 sequence (P17931 whole entry): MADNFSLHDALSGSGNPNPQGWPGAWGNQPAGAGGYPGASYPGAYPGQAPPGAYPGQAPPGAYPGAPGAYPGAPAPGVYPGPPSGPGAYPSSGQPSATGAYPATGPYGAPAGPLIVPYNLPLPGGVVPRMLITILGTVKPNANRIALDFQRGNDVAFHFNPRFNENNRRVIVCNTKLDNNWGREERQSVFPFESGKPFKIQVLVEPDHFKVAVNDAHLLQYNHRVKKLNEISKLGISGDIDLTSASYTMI
Chain of Galectin-1 (P09382 whole entry): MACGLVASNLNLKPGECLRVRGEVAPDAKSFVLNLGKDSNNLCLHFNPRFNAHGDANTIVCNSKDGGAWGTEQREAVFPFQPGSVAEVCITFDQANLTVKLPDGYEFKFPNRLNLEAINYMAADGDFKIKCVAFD

| Compound | Kd (Galectin-8 [1]) | Kd (Galectin-3 [2]) | further results |
| --- | --- | --- | --- |
| O=C(NS(=O)(=O)c1ccc([N+](=O)[O-])cc1)c1cc2cc(Oc3ccc(Cl)c(Cl)c3)ccc2[nH]1 | 19.2 µM | 30 µM |  |
| O=C(NS(=O)(=O)c1cc(Cl)c(Cl)s1)c1cc2cc(Oc3ccc(Cl)cc3Br)ccc2[nH]1 | 14.1 µM | 24.9 µM |  |
| O=C(NS(=O)(=O)c1ccc2ncsc2c1)c1cc2cc(Oc3ccc(Cl)c(Cl)c3)ccc2[nH]1 | 8.3 µM | 7.6 µM | Kd (Galectin-3 [3]): 4.12 µM; deltaH (Galectin-3 [4]): 1.28 kcal/mol; Kd (Galectin-8 [5]): 6.04 µM; deltaH [6]: 4.91 kcal/mol; inhibition at 1 µM (MRC5): 14%; deltaG [7]: -7.12 kcal/mol; Kd (Galectin-1): 107 µM; -TdeltaS (Galectin-3 [8]): -8.63 kcal/mol; viability at 24 h, 10 µM [9]: 66%; -TdeltaS [10]: -12 kcal/mol; Kd (Galectin-8 [11]): 210 µM; viability at 24 h, 1 µM [12]: 95%; deltaG (Galectin-3 [13]): -7.35 kcal/mol |
| O=C(NS(=O)(=O)c1cc(Cl)c(Cl)s1)c1cc2cc(Oc3ccc(Cl)c(Cl)c3)ccc2o1 | 9.6 µM | 30.5 µM | Kd (Galectin-1): > 500 µM |
| O=C(NS(=O)(=O)c1ccc(F)cc1S(=O)(=O)C(F)(F)F)c1cc2cc(Oc3ccc(Cl)c(Cl)c3)ccc2[nH]1 | 16 µM | 32.3 µM |  |
| COc1cccc(S(=O)(=O)NC(=O)c2cc3cc(Oc4ccc(Cl)c(Cl)c4)ccc3[nH]2)c1 | 17.7 µM | 39.2 µM |  |
| CCOC(=O)c1ccc(S(=O)(=O)NC(=O)c2cc3cc(Oc4ccc(Cl)c(Cl)c4)ccc3n2C)cc1 | 16.1 µM | 36.5 µM | Kd (Galectin-1): > 500 µM; Kd (Galectin-8 [11]): > 300 µM |
| O=C(NS(=O)(=O)c1ccc(Cl)cc1Cl)c1cc2cc(Oc3ccc(Cl)c(Cl)c3)ccc2[nH]1 | 9.4 µM | 16 µM | Kd (Galectin-1): 43.7 µM; Kd (Galectin-8 [11]): > 300 µM |
| O=C(NS(=O)(=O)Cc1noc2ccccc12)c1cc2cc(Oc3ccc(Cl)c(Cl)c3)ccc2[nH]1 | 24.6 µM | 321 µM |  |
| CC(C)c1ccc(Oc2ccc3cc(C(=O)NS(=O)(=O)c4ccc(Cl)cc4Cl)[nH]c3c2)cc1 |  | 784 µM |  |
| O=C(NS(=O)(=O)c1csc2ccccc12)c1cc2cc(Oc3ccc(Cl)c(Cl)c3)ccc2[nH]1 | 8.2 µM | 10.6 µM |  |
| O=C(NS(=O)(=O)c1cc(Cl)c(Cl)s1)c1cc2cc(Oc3ccc(Cl)cc3Cl)ccc2[nH]1 | 19.3 µM | 22.7 µM |  |
| Cc1noc(C)c1S(=O)(=O)NC(=O)c1cc2cc(Oc3ccc(Cl)c(Cl)c3)ccc2[nH]1 | 22.9 µM | 74.2 µM |  |
| OC[C@H]1O[C@@H](S[C@@H]2O[C@H](CO)[C@H](O)[C@H](n3cc(-c4cccc(F)c4)nn3)[C@H]2O)[C@H](O)[C@@H](n2cc(-c3cccc(F)c3)nn2)[C@H]1O [OLITIGALTIN] | 21.6 µM |  | inhibition at 1 µM (MRC5): 49%; Kd (Galectin-8 [14]): 86 µM; Kd (Galectin-8 [11]): 281 µM |
| O=C(NS(=O)(=O)c1sc(Cl)cc1Cc1ccccc1)c1cc2cc(Oc3ccc(Cl)c(Cl)c3)ccc2[nH]1 | 5.6 µM | 35.9 µM | Kd (Galectin-1): 96.1 µM |
| O=C(NS(=O)(=O)c1sccc1Cc1ccccc1)c1cc2cc(Oc3ccc(Cl)c(Cl)c3)ccc2[nH]1 | 12.5 µM | 22.7 µM | Kd (Galectin-3 [3]): 12.8 µM; deltaH (Galectin-3 [4]): -4.74 kcal/mol; Kd (Galectin-8 [5]): 2.06 µM; deltaH [6]: -2.29 kcal/mol; inhibition at 1 µM (MRC5): 21%; deltaG [7]: -7.76 kcal/mol; Kd (Galectin-1): 138 µM; -TdeltaS (Galectin-3 [8]): -1.94 kcal/mol; viability at 24 h, 10 µM [9]: 99%; -TdeltaS [10]: -5.47 kcal/mol; Kd (Galectin-8 [11]): 203 µM; viability at 24 h, 1 µM [12]: 97%; deltaG (Galectin-3 [13]): -6.68 kcal/mol |
| CCOC(=O)c1ccc(S(=O)(=O)NC(=O)c2cc3cc(Oc4ccc(Cl)c(Cl)c4)ccc3[nH]2)cc1 | 17.5 µM | 17.1 µM | Kd (Galectin-1): 118 µM; Kd (Galectin-8 [11]): 228 µM |
| O=C(NS(=O)(=O)c1ccn(Cl)n1)c1cc2cc(Oc3ccc(Cl)c(Cl)c3)ccc2[nH]1 | 57 µM | 76.9 µM |  |
| Cc1nc(Cl)sc1S(=O)(=O)NC(=O)c1cc2cc(Oc3ccc(Cl)c(Cl)c3)ccc2[nH]1 | 20.3 µM | 31 µM |  |
| LACTOSE, ANHYDROUS |  |  | Kd (Galectin-8 [5]): 93 µM; Kd (Galectin-8 [15]): 893 µM |
| O=C(O)c1ccc(S(=O)(=O)NC(=O)c2cc3cc(Oc4ccc(Cl)c(Cl)c4)ccc3[nH]2)cc1 | 73 µM | 119 µM |  |

Further lines, with some results ahead:

| Kd (Galectin-8 [1]) | Kd (Galectin-3 [2]) | Compound | further results |
| --- | --- | --- | --- |
| 18.1 µM | 80.9 µM | O=C(NS(=O)(=O)c1ccc(Cl)cc1)c1cc2cc(Oc3ccc(Cl)c(Cl)c3)ccc2[nH]1 |  |
| 17.3 µM | 21.9 µM | O=C(NS(=O)(=O)c1cc(Cl)sc1Cl)c1cc2cc(Oc3ccc(Cl)c(Cl)c3)ccc2[nH]1 |  |
| 14.9 µM | 33 µM | O=C(NS(=O)(=O)c1cc(F)c(F)c(F)c1)c1cc2cc(Oc3ccc(Cl)c(Cl)c3)ccc2[nH]1 |  |
| 8 µM | 14.3 µM | O=C(NS(=O)(=O)c1cc(Cl)c(Cl)s1)c1cc2cc(Oc3ccc(Br)c(F)c3)ccc2[nH]1 |  |
| 19.2 µM | 27.3 µM | O=C(NS(=O)(=O)c1cc(Cl)c(Cl)s1)c1cc2cc(Oc3cccc(Cl)c3Br)ccc2[nH]1 |  |
| 16.4 µM | 24.9 µM | O=C(NS(=O)(=O)c1ccccc1Cl)c1cc2cc(Oc3ccc(Cl)c(Cl)c3)ccc2[nH]1 |  |
| > 300 µM | 212 µM | O=C(NS(=O)(=O)c1cc(Cl)c(Cl)s1)c1cc2cc(Oc3ccc(Cl)cn3)ccc2[nH]1 |  |
| 57 µM | 121 µM | O=C(NS(=O)(=O)c1ccc(Cl)cc1Cl)c1cc2cc(Oc3ccc(F)cc3)ccc2[nH]1 |  |
| 18.5 µM | 15.5 µM | O=C(NS(=O)(=O)c1ccc(OC(F)(F)F)cc1)c1cc2cc(Oc3ccc(Cl)c(Cl)c3)ccc2[nH]1 |  |
| 10.9 µM | 20 µM | O=C(NS(=O)(=O)c1cc(Cl)c(Cl)s1)c1cc2cc(Oc3ccc(Cl)c(Cl)c3)ccc2[nH]1 | Kd (Galectin-1): 70.8 µM; Kd (Galectin-8 [11]): > 300 µM |
|  | 363 µM | CCOC(=O)c1ccc(S(=O)(=O)N(C)C(=O)c2cc3cc(Oc4ccc(Cl)c(Cl)c4)ccc3n2C)cc1 |  |
| 253 µM | 224 µM | O=C(NS(=O)(=O)c1ccc(Cl)cc1Cl)c1cc2c(Oc3ccc(F)cc3)cccc2[nH]1 |  |
| 9.4 µM | 23.7 µM | O=C(NS(=O)(=O)c1cc(Cl)c(Cl)s1)c1cc2cc(Oc3ccc(Br)c(Cl)c3)ccc2[nH]1 |  |
| 41.8 µM | 210 µM | O=C(NS(=O)(=O)c1ccccn1)c1cc2cc(Oc3ccc(Cl)c(Cl)c3)ccc2[nH]1 |  |
| 76.2 µM | 303 µM | O=C(NS(=O)(=O)c1ccc(Cl)cc1Cl)c1cc2ccc(Oc3ccc(F)cc3)cc2[nH]1 |  |
| 15.5 µM | 20.1 µM | O=C(NS(=O)(=O)c1ccc2c(c1)OCC2)c1cc2cc(Oc3ccc(Cl)c(Cl)c3)ccc2[nH]1 |  |
| 7.3 µM | 27.1 µM | O=C(NS(=O)(=O)c1cc(Cl)c(Cl)s1)c1cc2cc(Oc3ccc(Br)cc3F)ccc2[nH]1 |  |
| 18.7 µM | 37.4 µM | O=C(NS(=O)(=O)c1ccccc1)c1cc2cc(Oc3ccc(Cl)c(Cl)c3)ccc2[nH]1 |  |
| 18.7 µM | 10 µM | O=C(NS(=O)(=O)c1ccc2oc(=O)ccc2c1)c1cc2cc(Oc3ccc(Cl)c(Cl)c3)ccc2[nH]1 | Kd (Galectin-3 [3]): 11 µM; deltaH (Galectin-3 [4]): -3.82 kcal/mol; Kd (Galectin-8 [5]): 2.01 µM; deltaH [6]: -1.01 kcal/mol; deltaG [7]: -7.77 kcal/mol; Kd (Galectin-1): 86.9 µM; -TdeltaS (Galectin-3 [8]): -2.94 kcal/mol; -TdeltaS [10]: -6.76 kcal/mol; Kd (Galectin-8 [11]): > 300 µM; deltaG (Galectin-3 [13]): -6.77 kcal/mol |
